In this test the target is human adenosine A2a receptor (Homo sapiens (Human), UniProt P29274). Put plainly: A2a receptor binding affinity, [3H]-NECA radioligand binding test. As to conditions: [3H]-NECA 37 nM; membrane from HEK-293 cells transfected with human adenosine A2a receptor. As for the experimental part:
The binding affinity of the compounds according to Examples of the present invention to the human adenosine A2a receptor was evaluated by entrusting SB drug discovery in the UK.
A radioligand binding test was conducted by using [3H]-NECA (5′-N-[adenine-2,8-3H]-ethylcarboxamidoadenosine) and an adenosine A2a membrane. As the adenosine A2a membrane, a cell membrane prepared from HEK-293 cells transfected with human adenosine A2a receptor was used. The membrane used for the test was prepared by incubating with a radioligand until equilibrium was reached. In order to separate the radioligand-bound membrane, the unbound radioligand was separated by using Packard filtermate Harverster and glass filter plates.
10 μL of test compound dissolved in binding buffer (50 mM Tris, 10 mM MgCl2, 1 mM EDTA pH 7.4) and 20 μL of [3H]-NECA (final concentration of 37 nM) or reference inhibitor was mixed with 20 μL of A2a membrane in an unbound 96-well plate and incubated at room temperature for one hour. Prior to filtration, a 96-well harvest filter plate was coated with 0.33% polyethylenimine for 30 minutes and then washed with assay buffer. The binding reaction was transferred to the filter plate and washed three times with wash buffer. The dish was then dried, scintillant was added, and radioactivity was counted in a scintillation counter (Topcount NXT, Packard).
The binding affinity IC50 (μM) for the human adenosine A2a receptor obtained according to the above experimental method is shown in the table below.

Sequence of human adenosine A2a receptor (P29274 whole entry): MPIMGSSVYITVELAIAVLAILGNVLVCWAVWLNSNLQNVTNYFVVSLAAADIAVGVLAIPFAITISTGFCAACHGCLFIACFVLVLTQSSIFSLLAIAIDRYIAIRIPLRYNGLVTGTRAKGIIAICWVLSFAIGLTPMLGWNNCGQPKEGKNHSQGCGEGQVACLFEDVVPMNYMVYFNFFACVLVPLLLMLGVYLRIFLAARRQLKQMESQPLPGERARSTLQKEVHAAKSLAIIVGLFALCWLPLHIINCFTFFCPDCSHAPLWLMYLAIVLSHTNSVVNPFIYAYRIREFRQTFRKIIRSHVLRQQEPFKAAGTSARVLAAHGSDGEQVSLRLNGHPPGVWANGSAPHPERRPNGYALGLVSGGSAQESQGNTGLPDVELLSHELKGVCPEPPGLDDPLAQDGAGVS

Broadly, the IC50 is the concentration that gives 50% inhibition. A low value points to greater potency. Turning to `Nc1nc(N2CCC[C@H]2C(=O)N2CC3CCC(C2)N3C(=O)c2ccccc2)nc2nc(-c3ccco3)nn12` [Example 157, (3-((7-amino-2-(furan-2-yl)-[1,2,4]triazolo[1,5-a][1,3,5]triazin-5-yl)-L-prolyl)-3,8-diazabicyclo[3.2.1]octan-8-yl)(phenyl)methanone], the 50% inhibitory concentration (IC50) worked out at 6 nM.
Under `Cc1ccc(-c2nc3nc(N4CCC[C@H]4C(=O)N4CCN(c5ccccc5)CC4)nc(N)n3n2)o1` [Example 199, (S)-(1-(7-amino-2-(5-methylfuran-2-yl)-[1,2,4]triazolo[1,5-a][1,3,5]triazin-5-yl)pyrrolidin-2-yl)(4-phenylpiperazin-1-yl)methanone] stands 2 nM.
In turn, `CC(C)(F)CN1CCN(C(=O)[C@@H]2CCCN2c2cc3nc(-c4ccco4)nn3c(N)n2)CC1` [Example 352, (S)-(1-(5-amino-2-(furan-2-yl)-[1,2,4]triazolo[1,5-c]pyrimidin-7-yl)pyrrolidin-2-yl)(4-(2-fluoro-2-methylpropyl)piperazin-1-yl)methanone] yielded an IC50 of 6 nM.
Under `CCCCN1CCN(C(=O)[C@@H](Nc2nc(N)n3nc(-c4ccco4)nc3n2)C2CCC2)CC1` [Example 177, (S)-2-((7-amino-2-(furan-2-yl)-[1,2,4]triazolo[1,5-a][1,3,5]triazin-5-yl)amino)-1-(4-butylpiperazin-1-yl)-2-cyclobutylethan-1-one] stands 20 nM; under `CC[C@H](Nc1nc(N)n2nc(-c3ccco3)nc2n1)C(=O)N1CCN(CC(C)(C)F)CC1` [Example 338, (S)-2-((7-amino-2-(furan-2-yl)-[1,2,4]triazolo[1,5-a][1,3,5]triazin-5-yl)amino)-1-(4-(2-fluoro-2-methylpropyl)piperazin-1-yl)butan-1-one], 14 nM.
On to `CCCCN1CCN(C(=O)[C@H](CC)Nc2nc(N)n3nc(-c4ccco4)nc3n2)CC1` [Example 172, (S)-2-((7-amino-2-(furan-2-yl)-[1,2,4]triazolo[1,5-a][1,3,5]triazin-5-yl)amino)-1-(4-butylpiperazin-1-yl)butan-1-one], for which the half-maximal inhibitory concentration (IC50) stood at 13 nM.
Under `Cc1ccc(-c2nc3nc(N4CC[C@H]4C(=O)N4CCN(CC(F)(F)C(F)(F)F)CC4)nc(N)n3n2)o1` [Example 313, (S)-(1-(7-amino-2-(5-methylfuran-2-yl)-[1,2,4]triazolo[1,5-a][1,3,5]triazin-5-yl)azetidin-2-yl)(4-(2,2,3,3,3-pentafluoropropyl)piperazin-1-yl)methanone] stands 5 nM; under `Nc1nc(N2CC[C@H]2C(=O)N2CCN(CC(F)(F)C(F)(F)C(F)(F)F)CC2)nc2nc(-c3ccco3)nn12` [Example 257, (S)-(1-(7-amino-2-(furan-2-yl)-[1,2,4]triazolo[1,5-a][1,3,5]triazin-5-yl)azetidin-2-yl)(4-(2,2,3,3,4,4,4-heptafluorobutyl)piperazin-1-yl)methanone], 0.8 nM; under `CC(c1ccccc1)N1CCN(C(=O)[C@@H]2CCCN2c2nc(N)n3nc(-c4ccco4)nc3n2)CC1` (stereo partly drawn) [Example 66], 7 nM.
Under `Cc1ccc(-c2nc3nc(N4CCC[C@H]4C(=O)N4CCN(CC(C)(F)F)CC4)nc(N)n3n2)o1` [Example 311, (S)-(1-(7-amino-2-(5-methylfuran-2-yl)-[1,2,4]triazolo[1,5-a][1,3,5]triazin-5-yl)pyrrolidin-2-yl)(4-(2,2-difluoropropyl)piperazin-1-yl)methanone] stands 2 nM; under `CCC(F)(F)CN1CCN(C(=O)[C@@H]2CCCN2c2nc(N)c3nc(-c4ccco4)oc3n2)CC1` [Example 270, (S)-(1-(7-amino-2-(furan-2-yl)oxazolo[5,4-d]pyrimidin-5-yl)pyrrolidin-2-yl)(4-(2,2-difluorobutyl)piperazin-1-yl)methanone], 9 nM; under `CC[C@H](Nc1nc(N)n2nc(-c3ccco3)nc2n1)C(=O)N1CCN(CC(F)(F)F)CC1` [Example 211, (S)-2-((7-amino-2-(furan-2-yl)-[1,2,4]triazolo[1,5-a][1,3,5]triazin-5-yl)amino)-1-(4-(2,2,2-trifluoroethyl)piperazin-1-yl)butan-1-one], 15 nM.
`Nc1nc(N2CCC[C@H]2C(=O)N2CCN(Cc3ccccc3)CC2)nc2nc(-c3ccco3)nn12` [Example 27, (S)-(1-(7-amino-2-(furan-2-yl)-[1,2,4]triazolo[1,5-a][1,3,5]triazin-5-yl)pyrrolidin-2-yl)(4-benzylpiperazin-1-yl)methanone]: the IC50 is 7 nM.
Under `Cc1ccc(-c2nc3nc(N4CCC[C@H]4C(=O)N4CCN(c5ccccc5)C(=O)C4)nc(N)n3n2)o1` [Example 198, 4-((7-amino-2-(5-methylfuran-2-yl)-[1,2,4]triazolo[1,5-a][1,3,5]triazin-5-yl)-L-prolyl)-1-phenylpiperazin-2-one] stands 8 nM.
Under `CCCCCN1CCN(C(=O)[C@@H]2CCCN2c2nc(N)n3nc(-c4ccco4)nc3n2)CC1` [Example 138, (S)-(1-(7-amino-2-(furan-2-yl)-[1,2,4]triazolo[1,5-a][1,3,5]triazin-5-yl)pyrrolidin-2-yl)(4-pentylpiperazin-1-yl)methanone] stands 2 nM; under `Nc1nc(N[C@@H](CN2CCCCC2)C(=O)N2CCN(c3ccc(F)cc3F)CC2)nc2nc(-c3ccco3)nn12` [Example 272, (S)-2-((7-amino-2-(furan-2-yl)-[1,2,4]triazolo[1,5-a][1,3,5]triazin-5-yl)amino)-1-(4-(2,4-difluorophenyl)piperazin-1-yl)-3-(piperidin-1-yl)propan-1-one], 15 nM; under `CC[C@H](Nc1nc(N)n2nc(-c3ccco3)nc2n1)C(=O)N1CCN(C(=O)CC(C)(C)O)CC1` [Example 368, (S)-1-(4-(2-((7-amino-2-(furan-2-yl)-[1,2,4]triazolo[1,5-a][1,3,5]triazin-5-yl)amino)butanoyl)piperazin-1-yl)-3-hydroxy-3-methylbutan-1-one], 3 nM.
Under `Nc1nc(N2CCC[C@H]2C(=O)N2CC(COc3ccccc3)C2)nc2nc(-c3ccco3)nn12` [Example 114, (S)-(1-(7-amino-2-(furan-2-yl)-[1,2,4]triazolo[1,5-a][1,3,5]triazin-5-yl)pyrrolidin-2-yl)(3-(phenoxymethyl)azetidin-1-yl)methanone] stands 8 nM.
Compound `Nc1nc(N2CCC[C@H]2C(=O)N2CCN(CC(F)(F)C(F)(F)C(F)(F)F)CC2)nc2nc(-c3ccco3)nn12` [Example 228, (S)-(1-(7-amino-2-(furan-2-yl)-[1,2,4]triazolo[1,5-a][1,3,5]triazin-5-yl)pyrrolidin-2-yl)(4-(2,2,3,3,4,4,4-heptafluorobutyl)piperazin-1-yl)methanone] gave a 50% inhibitory concentration (IC50) of 2 nM.
The compound `Nc1nc(N2CCC[C@H]2C(=O)N2CCC(C3CCN(CC(F)(F)F)CC3)CC2)cc2nc(-c3ccco3)nn12` [Example 376, (S)-(1-(5-amino-2-(furan-2-yl)-[1,2,4]triazolo[1,5-c]pyrimidin-7-yl)pyrrolidin-2-yl)(1′-(2,2,2-trifluoroethyl)-[4,4′-bipiperidin]-1-yl)methanone] gave a concentration for half-maximal inhibition (IC50) of 1 nM. This IC50 is about 2-fold lower than that of the compound before.
Under `CC(C)(F)CN1CCN(C(=O)CNc2nc(N)n3nc(-c4ccco4)nc3n2)CC1` [Example 388, 2-((7-amino-2-(furan-2-yl)-[1,2,4]triazolo[1,5-a][1,3,5]triazin-5-yl)amino)-1-(4-(2-fluoro-2-methylpropyl)piperazin-1-yl)ethan-1-one] stands 9 nM; under `CCC(O)(CC)CN1CCN(C(=O)[C@@H](Nc2nc(N)n3nc(-c4ccco4)nc3n2)C(C)C)CC1` [Example 348, (S)-2-((7-amino-2-(furan-2-yl)-[1,2,4]triazolo[1,5-a][1,3,5]triazin-5-yl)amino)-1-(4-(2-ethyl-2-hydroxybutyl)piperazin-1-yl)-3-methylbutan-1-one], 5 nM.
Under `Nc1nc(N2CCCN2C(=O)N2CCN(CC(F)(F)F)CC2)nc2nc(-c3ccco3)nn12` [Example 353, (2-(7-amino-2-(furan-2-yl)-[1,2,4]triazolo[1,5-a][1,3,5]triazin-5-yl)pyrazolidin-1-yl)(4-(2,2,2-trifluoroethyl)piperazin-1-yl)methanone] stands 8 nM; under `CCOC(=O)c1ccc(N2CCN(C(=O)[C@@H]3CCCN3c3nc(N)n4nc(-c5ccco5)nc4n3)CC2)cc1` [Example 123, Ethyl 4-(4-((7-amino-2-(furan-2-yl)-[1,2,4]triazolo[1,5-a][1,3,5]triazin-5-yl)-L-prolyl)piperazin-1-yl)benzoate], 0.5 nM; under `Nc1nc(N2CC[C@H]2C(=O)N2CCC(C3CCN(CC(F)F)CC3)CC2)nc2nc(-c3ccco3)nn12` [Example 323, (S)-(1-(7-amino-2-(furan-2-yl)-[1,2,4]triazolo[1,5-a][1,3,5]triazin-5-yl)azetidin-2-yl)(1′-(2,2-difluoroethyl)-[4,4′-bipiperidin]-1-yl)methanone], 3 nM.
`Nc1nc(N2CCC[C@H]2C(=O)N2CC3(CCN(C(=O)c4ccccc4)CC3)C2)nc2nc(-c3ccco3)nn12` [Example 160, (2-((7-amino-2-(furan-2-yl)-[1,2,4]triazolo[1,5-a][1,3,5]triazin-5-yl)-L-prolyl)-2,7-diazaspiro[3.5]nonan-7-yl)(phenyl)methanone] showed a 50% inhibitory concentration (IC50) of 4 nM. The IC50 values of the last two compounds are within 1.5-fold of each other.
Under `Cn1cnc(C(=O)N2CCN(C(=O)[C@@H]3CCCN3c3nc(N)n4nc(-c5ccco5)nc4n3)CC2)c1` [Example 102] stands 10 nM.

For the origin of these results see patent US20240217978A1 (CHONG KUN DANG PHARMACEUTICAL CORP., priority 2021, published 2024).
